Laboratory results as given in patent publication US20230234942A1, “COMPOUNDS FOR TREATING HUNTINGTON'S DISEASE” (PTC Therapeutics, Inc., priority 2020, published 2023).

Tested on: Endogenous Huntingtin Protein
Experiment: Endogenous Huntingtin Protein Assay (ELISA-based MSD electrochemiluminescence)
Format: cell-based
Details: Table 2; MSD plates coated with MW1 (expanded polyglutamine) or MAB2166 capture antibody; "inactive" = result above the detection limit of the assay
Procedure: Compounds of Formula (I) were tested using the Meso Scale Discovery (MSD) Assay provided in International Application No. PCT/US2016/066042, filed on Dec. 11, 2016 and claiming priority to U.S. Provisional Application 62/265,652 filed on Dec. 10, 2015, the entire contents of which are incorporated herein by reference.
The Endogenous Huntingtin Protein assay used in Biological Example 1 was developed using the ELISA-based MSD electrochemiluminescence assay platform.
Meso Scale Discovery (MSD) 96-well or 384-well plates were coated overnight at 4° C. with MW1 (expanded polyglutamine) or MAB2166 monoclonal antibody (for capture) at a concentration of 1 μg/mL in PBS (30 μL per well). Plates were then washed three times with 300 μL wash buffer (0.05% Tween-20 in PBS) and blocked (100 μL blocking buffer; 5% BSA in PBS) for 4-5 hours at room temperature with rotational shaking and then washed three times with wash buffer.
Samples (25 μL) were transferred to the antibody-coated MSD plate and incubated overnight at 4° C. After removal of the lysates, the plate was washed three times with wash buffer, and 25 μL of #56565 (Cell signaling; rabbit monoclonal) secondary antibody (diluted to 0.25 μg/mL in 0.05% Tween-20 in blocking buffer) was added to each well and incubated with shaking for 1 Hour at room temperature. Following incubation with the secondary antibody, the wells were rinsed with wash buffer after which 25 μL of goat anti-rabbit SULFO TAG secondary detection antibody (required aspect of the MSD system) (diluted to 0.25 μg/mL in 0.05% Tween-20 in blocking buffer) was added to each well and incubated with shaking for 1 hour at room temperature. After rinsing three times with wash buffer, 150 μL of read buffer T with surfactant (MSD) were added to each empty well, and the plate was imaged on a SI 6000 imager (MSD) according to manufacturers' instructions provided for 96- or 384-well plates.

IC50	IC50 (nM)	Compound
10.2 nM	–	Cc1cn2nc(-c3ccc(-c4cnc(N5CCN[C@H](C)C5)nn4)c(O)c3)cc(C)c2n1 [Cpd 98, 5-(2,8-dimethylimidazo[1,2-b]pyridazin-6-yl)-2-{3-[(3R)-3-methylpiperazin-1-yl]-1,2,4-triazin-6-yl]phenol]
4.1 nM	–	Cc1cn2cc(-c3ccc(-c4cnc(N5CCN(C)CC5)nn4)c(O)c3)cc(F)c2n1 [Cpd 73, 5-(8-fluoro-2-methylimidazo[1,2-a]pyridin-6-yl)-2-[3-(4-methylpiperazin-1-yl)-1,2,4-triazin-6-yl]phenol]
19.9 nM	–	CCc1cc(-c2ccc(-c3cnc(N4CCN[C@@H](C(C)C)C4)nn3)c(O)c2)cn2cc(C)nc12 [Cpd 138, 5-(8-ethyl-2-methylimidazo[1,2-a]pyridin-6-yl)-2-{3-[(3S)-3-(propan-2-yl)piperazin-1-yl]-1,2,4-triazin-6-yl}phenol]
5.1 nM	–	Cc1nc2c(C)nc(-c3ccc(-c4cnc(N5CCN[C@@H](C(C)C)C5)nn4)c(O)c3)cn2n1 [Cpd 78, 5-(2,8-dimethyl[1,2,4]triazolo[1,5-a]pyrazin-6-yl)-2-{3-[(3S)-3-(propan-2-yl)piperazin-1-yl]-1,2,4-triazin-6-yl}phenol]
16.1 nM	–	COc1cc(-c2cnc(-c3cnc(N4CCN(C)CC4)nn3)c(O)c2)cc2cn(C)nc12 [Cpd 121, 5-(7-methoxy-2-methyl-2H-indazol-5-yl)-2-[3-(4-methylpiperazin-1-yl)-1,2,4-triazin-6-yl]pyridin-3-ol]
–	inactive	Cc1cc(C)n2nc(-c3ccc(-c4cnc(N5C[C@@H](C)N[C@@H](C)C5)nn4)c(O)c3)nc2n1 [Cpd 117, 2-{3-[(3R,5S)-3,5-dimethylpiperazin-1-yl]-1,2,4-triazin-6-yl}-5-(5,7-dimethyl[1,2,4]triazolo[1,5-a]pyrimidin-2-yl)phenol]
22.7 nM	–	CC[C@H]1CN(c2ncc(-c3ccc(-c4cn[nH]c4)cc3O)nn2)CCN1 [Cpd 23, 2-{3-[(3S)-3-ethylpiperazin-1-yl]-1,2,4-triazin-6-yl}-5-(1H-pyrazol-4-yl)phenol]
167 nM	–	CC[C@@H]1CN(c2ncc(-c3ccc(-c4cn[nH]c4)cc3O)nn2)CCN1 [Cpd 48, 2-{3-[(3R)-3-ethylpiperazin-1-yl]-1,2,4-triazin-6-yl}-5-(1H-pyrazol-4-yl)phenol]
19.3 nM	–	Cc1ncn2cc(-c3ccc(-c4cnc(N5CCN[C@@H](C6CC6)C5)nn4)c(O)c3)ccc12 [Cpd 194, 2-{3-[(3S)-3-cyclopropylpiperazin-1-yl]-1,2,4-triazin-6-yl}-5-(1-methylimidazo[1,5-a]pyridin-6-yl)phenol]
943 nM	–	COc1cc(-c2ccc(-c3cnc(N4CCN[C@@H](C(C)C)C4)nn3)c(O)c2)cc(C)n1 [Cpd 271, 5-(2-methoxy-6-methylpyridin-4-yl)-2-{3-[(3S)-3-(propan-2-yl)piperazin-1-yl]-1,2,4-triazin-6-yl}phenol]
7.7 nM	–	Oc1cc(-c2ncsn2)ccc1-c1cnc(N2CCN[C@@H](C3CC3)C2)nn1 [Cpd 213, 2-{3-[(3S)-3-cyclopropylpiperazin-1-yl]-1,2,4-triazin-6-yl]-5-(1,2,4-thiadiazol-3-yl)phenol]
7.3 nM	–	CC(C)[C@H]1CN(c2ncc(-c3c(O)cc(-c4cn[nH]c4F)cc3F)nn2)CCN1 [Cpd 283, 3-fluoro-5-(5-fluoro-1H-pyrazol-4-yl)-2-{3-[(3S)-3-(propan-2-yl)piperazin-1-yl]-1,2,4-triazin-6-yl}phenol]
12.8 nM	–	CC(C)C1CN(c2ncc(-c3ccc(-c4c[nH]nc4F)cc3O)nn2)CCN1 (centres unmarked) [Cpd 15, 5-(3-fluoro-1H-pyrazol-4-yl)-2-{3-[3-(propan-2-yl)piperazin-1-yl]-1,2,4-triazin-6-yl]phenol]
548 nM	–	Oc1cc(-c2cn[nH]c2)ccc1-c1cnc(N2CCNC3(CC3)C2)nn1 [Cpd 55, 2-[3-(4,7-diazaspiro[2.5]octan-7-yl)-1,2,4-triazin-6-yl]-5-(1H-pyrazol-4-yl)phenol]
180 nM	–	CC(C)[C@H]1CN(c2ncc(-c3ccc(-c4ccc5nncn5c4)cc3O)nn2)CCN1 [Cpd 115, 2-{3-[(3S)-3-(propan-2-yl)piperazin-1-yl]-1,2,4-triazin-6-yl}-5-([1,2,4]triazolo[4,3-a]pyridin-6-yl)phenol]
94.2 nM	–	CC(C)[C@H]1CN(c2ncc(-c3ccc(-c4cnn(C)n4)cc3O)nn2)CCN1 [Cpd 262, 5-(2-methyl-2H-1,2,3-triazol-4-yl)-2-{3-[(3S)-3-(propan-2-yl)piperazin-1-yl]-1,2,4-triazin-6-yl}phenol]
91.4 nM	–	Oc1cc(-c2cn[nH]c2)ccc1-c1cnc(N2CCN3CCCC3C2)nn1 (centres unmarked) [Cpd 284, 2-[3-(hexahydropyrrolo[1,2-a]pyrazin-2(1H)-yl)-1,2,4-triazin-6-yl]-5-(1H-pyrazol-4-yl)phenol]
23.4 nM	–	CCC1CN(c2ncc(-c3ccc(-c4cn[nH]c4)cc3O)nn2)CCN1 (centres unmarked) [Cpd 24, 2-[3-(3-ethylpiperazin-1-yl)-1,2,4-triazin-6-yl]-5-(1H-pyrazol-4-yl)phenol]
162 nM	–	COc1nnc(-c2ccc(-c3cnc(N4CCN[C@@H](C(C)C)C4)nn3)c(O)c2)s1 [Cpd 204, 5-(5-methoxy-1,3,4-thiadiazol-2-yl)-2-{3-[(3S)-3-(propan-2-yl)piperazin-1-yl]-1,2,4-triazin-6-yl}phenol]
9.5 nM	–	[2H]C([2H])([2H])n1cc(-c2ccc(-c3cnc(N4CCN[C@@H](C5CC5)C4)nn3)c(O)c2)cn1 [Cpd 9, 2-{3-[(3S)-3-cyclopropylpiperazin-1-yl]-1,2,4-triazin-6-yl}-5-[1-(^2H3)methyl-1H-pyrazol-4-yl]phenol]
6 nM	–	Cc1cn2cc(-c3ccc(-c4cnc(N5C[C@@H](C)N[C@@H](C)C5)nn4)c(O)c3)ncc2n1 [Cpd 86, 2-{3-[(3R,5S)-3,5-dimethylpiperazin-1-yl]-1,2,4-triazin-6-yl}-5-(2-methylimidazo[1,2-a]pyrazin-6-yl)phenol]
6 nM	–	Oc1cc(-c2cn[nH]c2)ccc1-c1cnc(N2CCNC(C3CC3)C2)nn1 (centres unmarked) [Cpd 5, 2-[3-(3-cyclopropylpiperazin-1-yl)-1,2,4-triazin-6-yl]-5-(1H-pyrazol-4-yl)phenol]
13.7 nM	–	COc1cc(-c2ccc(-c3cnc(N4C[C@@H](C)N[C@@H](C5CC5)C4)nn3)c(O)c2)nc(OC)n1 [Cpd 219, 2-{3-[(3S,5R)-3-cyclopropyl-5-methylpiperazin-1-yl]-1,2,4-triazin-6-yl}-5-(2,6-dimethoxypyrimidin-4-yl)phenol]
37.3 nM	–	COc1cc(-c2ccc(-c3cnc(N4C[C@@H](C(C)C)N[C@@H](C)C4)nn3)c(O)c2)ncn1 [Cpd 227, 5-(6-methoxypyrimidin-4-yl)-2-{3-[(3S,5R)-3-methyl-5-(propan-2-yl)piperazin-1-yl]-1,2,4-triazin-6-yl}phenol]
5.6 nM	–	CC(C)[C@H]1CN(c2ncc(-c3cc(F)c(-c4cn[nH]c4)cc3O)nn2)CCN1 [Cpd 158, 4-fluoro-2-{3-[(3S)-3-(propan-2-yl)piperazin-1-yl]-1,2,4-triazin-6-yl}-5-(1H-pyrazol-4-yl)phenol]
10.9 nM	–	Cn1cc(-c2ccc(-c3cnc(N4CCN[C@@H](C5CC5)C4)nn3)c(O)c2)cn1 [Cpd 12, 2-{3-[(3S)-3-cyclopropylpiperazin-1-yl]-1,2,4-triazin-6-yl}-5-(1-methyl-1H-pyrazol-4-yl)phenol]
330 nM	–	[2H]C([2H])([2H])n1cc(-c2ccc(-c3cnc(N4C[C@@H](C)N(C)[C@@H](C)C4)nn3)c(O)c2)cn1 [Cpd 51, 5-[1-(^2H3)methyl-1H-pyrazol-4-yl]-2-{3-[(3R,5S)-3,4,5-trimethylpiperazin-1-yl]-1,2,4-triazin-6-yl}phenol]
5.4 nM	–	CC(C)[C@H]1CN(c2ncc(-c3ccc(-c4cc(F)c5nn(C)cc5c4)cc3O)nn2)CCN1 [Cpd 81, 5-(7-fluoro-2-methyl-2H-indazol-5-yl)-2-{3-[(3S)-3-(propan-2-yl)piperazin-1-yl]-1,2,4-triazin-6-yl}phenol]
113 nM	–	CNc1ccc(-c2ccc(-c3cnc(N4CCN[C@@H](C5CC5)C4)nn3)c(O)c2)cc1 [Cpd 179, 4-{3-[(3S)-3-cyclopropylpiperazin-1-yl]-1,2,4-triazin-6-yl}-4‘-(methylamino)[1,1‘-biphenyl]-3-ol]
173 nM	–	Oc1cc(-n2nccn2)cnc1-c1cnc(N2CCN[C@@H](C3CC3)C2)nn1 [Cpd 182, 2-{3-[(3S)-3-cyclopropylpiperazin-1-yl]-1,2,4-triazin-6-yl}-5-(2H-1,2,3-triazol-2-yl)pyridin-3-ol]

Compound	IC50	IC50 (nM)
4-fluoro-5-[1-(^2H3)methyl-1H-pyrazol-4-yl]-2-{3-[(3S)-3-(propan-2-yl)piperazin-1-yl]-1,2,4-triazin-6-yl}phenol [Cpd 152]	15 nM	–
C[C@@H]1CN[C@@H](C)CN1c1ncc(-c2ccc(-c3cn[nH]c3)cc2O)nn1 (single isomer, unassigned) [Cpd 190, 2-{3-[(2R,5S)-2,5-dimethylpiperazin-1-yl]-1,2,4-triazin-6-yl}-5-(1H-pyrazol-4-yl)phenol or 2-{3-[(2S,5R)-2,5-dimethylpiperazin-1-yl]-1,2,4-triazin-6-yl}-5-(1H-pyrazol-4-yl)phenol]	166 nM	–
